These results are taken from US20170107579A1, “E1 ENZYME MUTANTS AND USES THEREOF” (Millennium Pharmaceuticals, Inc., priority 2011, published 2017).

Each structure is given as a SMILES string.

For one series, the system named is A171T HCT-116 xenografts. The series can be described thus: Antitumor study, re-transplanted resistant xenograft in nude rats. It counts as in vivo, rat. As to conditions: A171T HCT-116 xenograft, one cycle of 150 mg/kg (days 1, 4, 8, 11). As to the method: (§1) Female NCr Nude rats (Taconic Farms) aged 6-8 weeks were inoculated with 10×10^6 HCT-116 cells subcutaneously in the right flank. Tumor growth was measured using digital vernier calipers. […] Rats received one dose per day biweekly for 2 weeks (days 1, 4, 8, and 11) of a 21-day therapy cycle. After three cycles of treatment refractory tumors were collected. Female CB-17 SCID mice (Charles River Laboratories) aged 6-8 weeks were inoculated with 2×10^6 THP-1 or OCI-Ly10 cells with Matrigel™ support (1:1, v/v). […] Mice received two doses per day bi-weekly (days 1, 4, 8, 11, 15, 18, 22 . . . ) until tumors reached approximately 500-800 mm^3. Tumors were then collected and one 40-50 mg piece of tumor was subcutaneously implanted using a 13 gauge trocar needle into 6 to 8 naïve animals for further study. In addition tumor DNA was extracted for mutational analysis as described in supplementary information.
The A171T NAEβ mutation was still present in this resistant xenograft model as confirmed by both Sanger and Sequenom methodologies.

Another series has as its system HCT-116 xenografts (WT). Put plainly: Antitumor study, subcutaneous xenografts in nude rats. In kind it is in vivo. As for the experimental part:
as §1

Assay in series [1]: as above
It counts as in vivo. The settings on record: female, NCr Nude, rat, in vivo, sc; immunocompromised rats, subcutaneously, days 1, 4, 8 and 11 of a 21 day cycle; read-out: maximum tolerated dose. As for the experimental part:
as §1

For another series, the system named is Calu-6 cells. The series can be described thus: Cell viability assay, 96 hours ATPlite. It counts as cell-based. As to conditions: Homo sapiens, Calu-6 parental cells. As for the experimental part: (§2) Cell line cultures were maintained using appropriate cell culture media as recommended by ATCC and as previously reported (Soucy et al., 2009, Milhollen et al., 2010). […] Cell viability assays completed using 96 hours ATPlite assay (PerkinElmer) as previously reported (Soucy et al., 2009).
A general note: Cellular ATP, detected with luciferase, serves as a proxy for viable cell number.

A further series concerns HCT-116 cells. The series can be described thus: Cell viability assay, 96 hours ATPlite. In kind it is cell-based. The settings on record: Homo sapiens, HCT-116 parental cells. As to the method:
as §2

The test system of the next series is NCI-H460 cells. The series can be described thus: Cell viability assay, 96 hours ATPlite. In kind it is cell-based. The settings on record: Homo sapiens, NCI-H460 parental cells. As for the experimental part: as §2
In series [2] the test system is HCT-116 WT, A171T and G201V cells. Put plainly: Cell cycle analysis (propidium iodide, flow cytometry). It counts as cell-based. As to conditions: HCT-116 resistant A171T and G201V clones, 1 μM, 24 hours. As to the method: Cell cycle analysis. FIG. 11A. HCT-116 WT, FIG. 11B. HCT-116.1 A171T and FIG. 11C.
Logarithmically growing cells were incubated with either MLN4924 or DMSO for the times indicated. Collected cells were fixed in 70% ethanol and stored overnight at 4° C. Fixed cells were centrifuged to remove ethanol, and the pellets were resuspended in propidium iodide and RNaseA in PBS for 1 h on ice protected from light. Cell-cycle distributions were determined using flow cytometry (FACS Calibur, Becton Dickinson) and analysed using Winlist software (Verity).
(Flow cytometry measures light scatter and fluorescence of single cells or particles in a stream.)

Series [3] relates to NEDD8-cullin levels in HCT-116 WT and A171T xenografts. The series can be described thus: Pharmacodynamic marker analysis in tumor xenografts. In kind it is in vivo, rat. The settings on record: single dose of 150 mg/kg. The source says: The relative levels of NEDD8-cullin and pIxBa were estimated by quantitative immunoblot analysis (Li-cor Odyssey system) using Alexa680-labelled anti-IgG (Molecular Probes) as the secondary antibody. For the analysis of CDT1 and cleaved caspase-3 levels in tumor sections, formalin-fixed, paraffin-embedded tumour sections were stained with the relevant antibodies, amplified with HRP-labelled secondary antibodies and detected with the ChromoMap DAB Kit (Ventana Medical Systems). Slides were counterstained with haematoxylin. Images were captured using an Eclipse E800 microscope (Nikon Instruments) and Retiga EXi colour digital camera (QImaging) and processed using Metamorph software (Molecular Devices). CDT1 and cleaved caspase-3 are expressed as a function of the DAB signal area.
The digests were analyzed on a LC/MS/MS system as previously described (Brownell et al., 2010).

`NS(=O)(=O)OC[C@@H]1C[C@@H](n2ccc3c(N[C@H]4CCc5ccccc54)ncnc32)C[C@@H]1O` [MLN4924, ((1S,2S,4R)-4-{4-[(1S)-2,3-dihydro-1H-inden-1-ylamino]-7H-pyrrolo[2,3-d]pyrimidin-7-yl}-2-hydroxycyclopentyl)methyl sulphamate]: the tumor growth inhibition in the series with A171T HCT-116 xenografts is 38%; in the series on HCT-116 xenografts (WT) (wild type HCT-116 xenografts, one cycle of 150 mg/kg (days 1, 4, 8, 11)), 94%. Also, the antitumor effect entry in the series on HCT-116 xenografts (WT) (WT HCT-116 xenografts, after first cycle, 150 mg/kg s.c.) was “tumor regressions”. The MTD in series [1] was found to be 150 mg/kg. Besides, the EC50 in the series with Calu-6 cells is 80 nM; in the series on HCT-116 cells it was 46 nM; in the series with NCI-H460 cells it was 1070 nM. In series [2], the cell cycle distribution entry is “not significantly altered”. In series [3] (A171T HCT-116 resistant model), the “time of maximal inhibition of NEDD8-cullin levels post-dose” value is 8 h. In series [3] (WT HCT-116 xenografts), the “time of maximal inhibition of NEDD8-cullin levels post dose” value was 1 h.

Broadly, the EC50 is the midpoint of the concentration-response curve.
